This note sets out measurements from PubChem BioAssay (NCI).

Among the test systems are UACC-62 melanoma; OVCAR-3 ovarian; KM12 colon; CAKI-1 renal; SN12C renal; SK-OV-3 ovarian; EKVX NSCLC; MOLT-4 leukemia; HT29 colon; RXF 393 renal.
Common to all, as to assay: growth of human tumour cells (NCI), 48 h

Structures are written as SMILES. Several values for one entry are separate records, joined by “and”; a condition that tells them apart may be missing. Equal entries are not always repeated.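 A five-concentration, 48-hour dose response in 96-well plates underlies each endpoint, interpolated linearly between surrounding concentrations. Here, GI50 denotes the concentration required for 50% inhibition of growth. At the TGI there is no net growth.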

As for `O=[N+]([O-])c1cc([N+](=O)[O-])c(/C=C/c2ccc(Cl)c(Cl)c2)cc1/C=C/c1ccc(Cl)c(Cl)c1`, the TGI with UACC-62 melanoma was 79.6 µM; in the test on OVCAR-3 ovarian, 59.8 µM; in the test on KM12 colon, 51.1 µM; in the test with CAKI-1 renal, > 100 µM; in the test with SN12C renal, 43.1 µM; in the test on SK-OV-3 ovarian it was > 100 µM. Also, the TGI with EKVX NSCLC is > 100 µM; with MOLT-4 leukemia, 62.4 µM; with HT29 colon it was 63.7 µM; in the test with RXF 393 renal it was 37 µM.
With `O=C(NCc1cccnc1)C1COc2cc(-c3cc(=O)c4ccccc4o3)ccc2O1` (stereo unspecified), the TGI in the test on UACC-62 melanoma was > 100 µM; in the test with OVCAR-3 ovarian, > 100 µM; in the test on KM12 colon, > 100 µM; in the test with CAKI-1 renal it was > 84.3 µM; in the test with SN12C renal, > 78 µM; with SK-OV-3 ovarian it was > 100 µM. In addition, the TGI in the test with EKVX NSCLC was > 100 µM; in the test on MOLT-4 leukemia, > 100 µM; in the test with HT29 colon, > 100 µM; in the test on RXF 393 renal, > 61.2 µM.
As for `CCc1nc(N)nc(N)c1-c1ccc2nnn(O)c2c1`, the TGI with UACC-62 melanoma, in the test on OVCAR-3 ovarian, in the test on KM12 colon, in the test with CAKI-1 renal, in the test on SN12C renal and in the test on SK-OV-3 ovarian was > 100 µM each time. In addition, the TGI in the test on EKVX NSCLC, in the test on MOLT-4 leukemia, with HT29 colon and in the test on RXF 393 renal was > 100 µM each time.
For `O=C(O)C(C(=O)O)P(=S)(S)c1ccccc1` (stereo unspecified), the TGI in the test with UACC-62 melanoma, in the test on OVCAR-3 ovarian, with KM12 colon, in the test with CAKI-1 renal, in the test on SN12C renal and in the test on SK-OV-3 ovarian was > 100 µM in each case. Further, the TGI with EKVX NSCLC, in the test with MOLT-4 leukemia, with HT29 colon and with RXF 393 renal was > 100 µM each time.
`C(=N\Nc1ccccc1)/c1nc2ccccc2nc1/C=N/Nc1ccccc1`: the TGI is 27.3 µM in the test with UACC-62 melanoma; 31.9 µM in the test with OVCAR-3 ovarian; 41 µM with KM12 colon; 21.4 µM in the test on CAKI-1 renal; 36.4 µM in the test on SN12C renal; 38.6 µM with SK-OV-3 ovarian. Also, the TGI was > 78.6 µM with EKVX NSCLC, 79.8 µM in the test with MOLT-4 leukemia, 23.5 µM with HT29 colon and 30.1 µM in the test with RXF 393 renal.
Consider `N=C(N)SCc1c2ccccc2c(CSC(=N)N)c2ccccc12`, for which the GI50 in the test with UACC-62 melanoma is 3.59 µM; in the test with OVCAR-3 ovarian, 12.4 µM; with KM12 colon, 10.3 µM; with CAKI-1 renal, 7.28 µM; with SN12C renal it was 3 µM; in the test with SK-OV-3 ovarian, 10.4 µM. The GI50 in the test on EKVX NSCLC was 13.4 µM; with MOLT-4 leukemia, 1.24 µM; with HT29 colon, 5.94 µM; in the test on RXF 393 renal it was 8.22 µM. The TGI with UACC-62 melanoma was 20.3 µM; with OVCAR-3 ovarian it was 30.2 µM; in the test with KM12 colon, 23.4 µM; in the test on CAKI-1 renal, 27.7 µM; with SN12C renal, 25.7 µM; in the test on SK-OV-3 ovarian it was 22.6 µM. The TGI worked out at 51.6 µM in the test on EKVX NSCLC, 8.23 µM in the test on MOLT-4 leukemia, 21.9 µM in the test on HT29 colon and 23.7 µM with RXF 393 renal.
For the molecule `C[C@@H](NC(=O)/C(C#N)=C/c1ccc([N+](=O)[O-])cc1)c1ccccc1`, the GI50 in the test on UACC-62 melanoma was 1.8 µM; in the test with OVCAR-3 ovarian, 2.39 µM; in the test with KM12 colon, 2.07 µM; in the test with CAKI-1 renal it was 2.37 µM; with SN12C renal, 2.11 µM; with SK-OV-3 ovarian, 8.33 µM. Further, the GI50 in the test with EKVX NSCLC was 6.81 µM; in the test on MOLT-4 leukemia, 3.02 µM; in the test on HT29 colon it was 4.85 µM; in the test on RXF 393 renal it was 1.62 µM. Moreover, the TGI in the test on UACC-62 melanoma turned out to be 3.71 µM; with OVCAR-3 ovarian, 5.65 µM; in the test on KM12 colon, 4.18 µM; with CAKI-1 renal, 6.47 µM; in the test with SN12C renal, 4.85 µM; in the test with SK-OV-3 ovarian, 23.3 µM. The TGI with EKVX NSCLC was 20.7 µM; in the test on MOLT-4 leukemia, 7.3 µM; with HT29 colon, 10.2 µM; in the test with RXF 393 renal it was 3.04 µM.
As for `COC(=O)C1=COC(C)C2CN3CCc4c([nH]c5cc(OC)c(OC)cc45)C3CC12` (stereo unspecified), the TGI in the test on UACC-62 melanoma, in the test with OVCAR-3 ovarian, in the test with KM12 colon, in the test on CAKI-1 renal, in the test on SN12C renal and in the test on SK-OV-3 ovarian was > 100 µM throughout. The TGI was > 100 µM with EKVX NSCLC; > 100 µM and 79.1 µM with MOLT-4 leukemia; > 100 µM and 94.5 µM in the test with HT29 colon; 85.8 µM with RXF 393 renal. Besides, in the test with KM12 colon, the GI50 was > 100 µM and 37.2 µM.
`COc1ccc(Cn2cc3c(c2-c2ccccc2)CCc2cnoc2-3)cc1OC`: the GI50 in the test with UACC-62 melanoma is 0.581 µM; in the test on OVCAR-3 ovarian, 0.332 µM; in the test with KM12 colon, 0.487 µM; in the test on CAKI-1 renal, 0.537 µM; in the test on SN12C renal it was 5.16 µM; in the test on SK-OV-3 ovarian, 1.48 µM. Besides, the GI50 with EKVX NSCLC is 1.66 µM; in the test on MOLT-4 leukemia it was 1.05 µM; with HT29 colon it was 0.387 µM; in the test on RXF 393 renal it was 1.68 µM. In addition, the TGI in the test with UACC-62 melanoma is > 100 µM; in the test on OVCAR-3 ovarian it was 0.884 µM; in the test on KM12 colon, > 100 µM; with CAKI-1 renal, > 100 µM; in the test on SN12C renal, > 100 µM; in the test with SK-OV-3 ovarian, > 100 µM. Moreover, the TGI with EKVX NSCLC, in the test on MOLT-4 leukemia, with HT29 colon and with RXF 393 renal was > 100 µM each time.
Turning to `N/C(=N/N=C/c1ccccc1)N/N=C\c1ccccc1`, the GI50 with UACC-62 melanoma is 7.92 µM; in the test on OVCAR-3 ovarian, 2.66 µM; in the test with KM12 colon, 2.76 µM; with CAKI-1 renal, 5.02 µM; in the test on SN12C renal, 5.6 µM; in the test with SK-OV-3 ovarian, 6.37 µM. For the same molecule, the GI50 was 7.59 µM in the test on EKVX NSCLC, 4.39 µM in the test on MOLT-4 leukemia, 3.25 µM in the test on HT29 colon and 2.46 µM in the test on RXF 393 renal. In addition, the TGI with UACC-62 melanoma was 28.6 µM; in the test on OVCAR-3 ovarian it was 7.8 µM; with KM12 colon, > 100 µM; in the test with CAKI-1 renal it was > 100 µM; in the test with SN12C renal it was > 100 µM; in the test with SK-OV-3 ovarian it was > 100 µM. Besides, the TGI in the test on EKVX NSCLC was > 100 µM; with MOLT-4 leukemia, 47.3 µM; in the test with HT29 colon, 52 µM; with RXF 393 renal it was 8.48 µM.
